Assays:
Enterococcus sp. = assay: in vitro antibacterial evaluation, MIC by broth dilution; assay type: cell-based; conditions: broth dilution, 18 hours at 35° C.
Summary of the method: (§1)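 Broth dilution per NCCLS M7-A2 in Mueller-Hinton II medium, inoculum 5×10^5 CFU/mL, antibiotic range 64-0.06 μg/mL. MIC taken as lowest concentration inhibiting growth; Gram-positive panel includes recent clinical isolates resistant to methicillin, penicillin and/or vancomycin.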

Staphylococcus sp. = assay: as above; assay type: cell-based; conditions: broth dilution, 18 hours at 35° C.; for MIC Staphylococcus haemolyticus (GC 4546): strain GC 4546
Summary of the method: as §1

Streptococcus sp. = assay: as above; assay type: cell-based; conditions: broth dilution, 18 hours at 35° C.
Summary of the method: as §1

[1] = anatomic pathology (histopathology of heart and kidney) in mice; assay type: in vivo; conditions: CD-1 mice, 20 mg/kg intravenously daily for 9 days, necropsy day 10, microscopic histopathology
Protocol: Samples of tissues from necropsied mice were formalin-fixed, paraffin-embedded, sectioned, stained with hematoxylin and eosin, and examined microscopically. Histopathologic findings were recorded. These findings were subjectively graded on a scale corresponding to slight, mild, moderate, marked and severe as compared to untreated controls.

Escherichia coli = assay: in vitro antibacterial evaluation, MIC by broth dilution; assay type: cell-based; conditions: 18 hours at 35° C.
Summary of the method: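 Broth dilution MIC per NCCLS M7-A2 in Mueller-Hinton II medium, inoculum 5×10^5 CFU/mL, antibiotic range 64-0.06 μg/mL. MIC taken as lowest concentration inhibiting growth.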

CN=C1N(C)CC(C(O)C2NC(=O)C(Cc3ccc(OC4OC(CO)C(OC5OC6COC7(OC6C(O)C5O)C5CC6CC(C5)CC7C6)C(O)C4O)cc3)NC(=O)C(C(C)c3ccccc3)NC(=O)CNC(=O)C(CO)NC(=O)C(C(O)C3CN(C)C(=NC)N3C3OC(CO)C(O)C(O)C3O)NC2=O)N1C (stereo not drawn) [Example 81, Cyclo[glycyl-β-methylphenylalanyl-O-[4-O-[4,6-O-(2-adamantylidene)hexopyranosyl]hexopyranosyl]tyrosyl-3-[1,3-dimethyl-2-(methylimino)imidazolidin-4-yl]seryl-3-[3-hexopyranosyl-1-methyl-2-(methylimino)imidazolidin-4-yl]serylseryl]]
>128 µg/mL: MIC Enterococcus faecalis (ATCC 29212) (Enterococcus sp.) | MIC Enterococcus faecalis (GC 2242) (Enterococcus sp.) | MIC Enterococcus faecalis (GC 2691) (Enterococcus sp.) | MIC Enterococcus faecalis (GC 3059) (Enterococcus sp.) | MIC Enterococcus faecalis (GC 4552) (Enterococcus sp.) | MIC Enterococcus faecalis (GC 4554) (Enterococcus sp.) | MIC Enterococcus faecalis (GC 6189) (Enterococcus sp.) | MIC Enterococcus faecium (GC 2243) (Enterococcus sp.) | MIC Enterococcus faecium (GC 4556) (Enterococcus sp.) | MIC Staphylococcus haemolyticus (GC 4546) (Staphylococcus sp.) | MIC Streptococcus pneumoniae (ATCC 6301) (Streptococcus sp.) | MIC Streptococcus pneumoniae (GC 4565) (Streptococcus sp.) | MIC Streptococcus pyogenes (GC 4563) (Streptococcus sp.) | MIC Escherichia coli (ATCC 25922) (Escherichia coli) | MIC Escherichia coli (GC 4559) (Escherichia coli)
0: Anatomical Pathology (Day 10), Heart [1] | Anatomical Pathology (Day 10), Kidney [1]
128 µg/mL: MIC Enterococcus avium (GC 4558) (Enterococcus sp.) | MIC Enterococcus faecalis (GC 4553) (Enterococcus sp.) | MIC Enterococcus faecium (GC 4557) (Enterococcus sp.) | MIC Streptococcus agalactiae (GC 4564) (Streptococcus sp.) | MIC Streptococcus pneumoniae (GC 1894) (Streptococcus sp.) | MIC Escherichia coli (GC 4560) (Escherichia coli)

CC(c1ccccc1)C1NC(=O)CNC(=O)C(CO)NC(=O)C(C(O)C2CN(Cc3ccc(C(C)(C)C)cc3)C(=N)N2C2OC(CO)C(O)C(O)C2O)NC(=O)C(C(O)C2CNC(=N)N2)NC(=O)C(Cc2ccc(OC3OC(CO)C(OC4OC(CO)C(O)C(O)C4O)C(O)C3O)cc2)NC1=O (stereo not drawn) [Example 60, Cyclo[glycyl-β-methylphenylalanyl-O-(4-O-hexopyranosylhexopyranosyl)tyrosl-(2-iminoimidazolidin-4-yl)seryl-3-[1-(4-tert-butylbenzyl)-3-hexopyranosyl-2-iminoimidazolidin-4-yl]-serylseryl]]
>128 µg/mL: MIC Enterococcus faecalis (ATCC 29212) (Enterococcus sp.; Enterococcus faecalis (ATCC 29212)) | MIC Enterococcus faecalis (GC 4552) (Enterococcus sp.; Enterococcus faecalis (GC 4552)) | MIC Enterococcus faecalis (GC 4554) (Enterococcus sp.; Enterococcus faecalis (GC 4554)) | MIC Enterococcus faecalis (GC 6189) (Enterococcus sp.; Enterococcus faecalis (GC 6189)) | MIC Enterococcus faecium (GC 2243) (Enterococcus sp.; Enterococcus faecium (GC 2243)) | MIC Enterococcus faecium (GC 4556) (Enterococcus sp.; Enterococcus faecium (GC 4556)) | MIC Enterococcus faecalis (ATCC 29212) (Enterococcus sp.) | MIC Enterococcus faecalis (GC 2242) (Enterococcus sp.) | MIC Enterococcus faecalis (GC 2691) (Enterococcus sp.) | MIC Enterococcus faecalis (GC 3059) (Enterococcus sp.) | MIC Enterococcus faecalis (GC 4552) (Enterococcus sp.) | MIC Enterococcus faecalis (GC 4554) (Enterococcus sp.) | MIC Enterococcus faecalis (GC 6189) (Enterococcus sp.) | MIC Enterococcus faecium (GC 2243) (Enterococcus sp.) | MIC Enterococcus faecium (GC 4556) (Enterococcus sp.) | MIC Enterococcus faecalis (GC 2242) (Enterococcus sp.; strain GC 2242) | MIC Enterococcus faecalis (GC 2691) (Enterococcus sp.; strain GC 2691) | MIC Enterococcus faecalis (GC 3059) (Enterococcus sp.; strain GC 3059) | MIC Staphylococcus aureus (ATCC 29213) (Staphylococcus sp.; strain ATCC 29213) | MIC Staphylococcus aureus (GC 1131) (Staphylococcus sp.; strain GC 1131) | MIC Staphylococcus aureus (GC 3051) (Staphylococcus sp.; strain GC 3051) | MIC Staphylococcus aureus (GC 3053) (Staphylococcus sp.; strain GC 3053) | MIC Staphylococcus aureus (GC 4541) (Staphylococcus sp.; strain GC 4541) | MIC Staphylococcus aureus (GC 4542) (Staphylococcus sp.; strain GC 4542) | MIC Staphylococcus aureus-SMITH (GC 4543) (Staphylococcus sp.; strain GC 4543) | MIC Staphylococcus aureus (GC 4544) (Staphylococcus sp.; strain GC 4544) | MIC Staphylococcus aureus (GC 4545) (Staphylococcus sp.; strain GC 4545) | MIC Staphylococcus haemolyticus (GC 4546) (Staphylococcus sp.) | MIC Coagulase Negative Staphylococcus (GC 4547) (Staphylococcus sp.; strain GC 4547) | MIC Coagulase Negative Staphylococcus (GC 4548) (Staphylococcus sp.; strain GC 4548) | MIC Coagulase Negative Staphylococcus (GC 4549) (Staphylococcus sp.; strain GC 4549) | MIC Coagulase Negative Staphylococcus (GC 4551) (Staphylococcus sp.; strain GC 4551) | MIC Coagulase Negative Staphylococcus (GC 6257) (Staphylococcus sp.; strain GC 6257) | MIC Streptococcus agalactiae (GC 4564) (Streptococcus sp.) | MIC Streptococcus pyogenes (GC 4563) (Streptococcus sp.) | MIC Streptococcus pyogenes (GC 4563) (Streptococcus sp.; strain GC 4563) | MIC Streptococcus agalactiae (GC 4564) (Streptococcus sp.; strain GC 4564) | MIC Escherichia coli (ATCC 25922) (Escherichia coli) | MIC Escherichia coli (GC 4559) (Escherichia coli)
64 µg/mL: MIC Streptococcus pneumoniae (GC 1894) (Streptococcus sp.) | MIC Streptococcus pneumoniae (GC 1894) (Streptococcus sp.; strain GC 1894)
16 µg/mL: MIC Escherichia coli (GC 4560) (Escherichia coli)
128 µg/mL: MIC Enterococcus avium (GC 4558) (Enterococcus sp.; Enterococcus avium (GC 4558)) | MIC Enterococcus faecalis (GC 4553) (Enterococcus sp.; Enterococcus faecalis (GC 4553)) | MIC Enterococcus faecium (GC 4557) (Enterococcus sp.; Enterococcus faecium (GC 4557)) | MIC Enterococcus avium (GC 4558) (Enterococcus sp.) | MIC Enterococcus faecalis (GC 4553) (Enterococcus sp.) | MIC Enterococcus faecium (GC 4557) (Enterococcus sp.) | MIC Streptococcus pneumoniae (ATCC 6301) (Streptococcus sp.) | MIC Streptococcus pneumoniae (GC 4565) (Streptococcus sp.) | MIC Streptococcus pneumoniae (ATCC 6301) (Streptococcus sp.; strain ATCC 6301) | MIC Streptococcus pneumoniae (GC 4565) (Streptococcus sp.; strain GC 4565)
0: Anatomical Pathology (Day 10), Heart [1] | Anatomical Pathology (Day 10), Kidney [1]
